# Data from patent publication US20260085315A1, “POLYNUCLEOTIDE COMPOSITIONS AND METHODS FOR TREATMENT OF CANCER” (APTAH BIO, INC., priority 2023, published 2026).
# “And” between values parts separate entries of the source, which are not always exact repeats. Equal entries are not always repeated. d = 2'-deoxy (DNA); m = 2'-O-methyl
# Columns and labels:
# [1] = tested on: Human Glioblastoma Cancer (U-87MG) xenograft; assay: Histopathology of tumor samples with scoring; type: in vivo, athymic nude mice; design: key: 1: Few; 2: Moderate; 3: Large; conditions: individual animals; G3 APT20TTMG, G2 TMZ
# Excerpt: The fixed tissues were processed for routine paraffin embedding followed by sectioning (3-6 micron). The sections were stained with hematoxylin and eosin. The prepared slides were examined under microscope by the study pathologist to record histopathological findings in tumor samples, related to capsule formation, cell type, connective tissue stroma, apoptosis, necrosis, lipid content, nucleus-to-cytoplasmic (N:C) ratio, nuclei mitotic figures, tumor grade, and level of differentiation. Each histopathological finding and tumor volume were assigned a score ranging from 1 to 4 (Table 7). The sum of these scores for each sample was used to infer the tumor aggressiveness.
# [2] = tested on: glioblastoma cell line U87-MG; assay: Internalization of FAM-conjugated compound by flow cytometry; type: cell-based, Human; conditions: 1 μM FAM conjugate
# Description: The values obtained were: 1 hour (47.45±4.7%), 2 hours (45.45±3.9%), 4 hours (58±4.8%) and 6 hours (63.65±3.2%). Cells were exposed to the fluorochrome-conjugated compound FAM at a concentration of 1 μM, so that the quantification of intracellular fluorescence was performed at 1, 2, 4 and 6 hours using of the flow cytometry technique, through the acquisition of 10,000 gated events. Data of 2 independent experiments performed in two technical replicates.
# SH-SY5Y cell line [3] = assay: Apoptosis/necrosis phase distribution; type: cell-based, Human; conditions: 0.25 μM; 24 hours
# SH-SY5Y cell line [4] = assay: Mitochondrial membrane potential; type: cell-based, Human; conditions: all treatments vs non-treated cells
# MCF-7 cell line [5] = assay: Annexin V/propidium iodide apoptosis assay; type: cell-based, Human; conditions: 0.25, 0.5, 1 μM; 24 hours; vs non-treated cells
# Description: The apoptosis-inducing potential of ASMO APT20TTMG was evaluated using the method of double labeling of cells with Annexin V and propidium iodide. Annexin V is a peptide that has a high affinity for phosphatidyl serine, a phospholipid distributed asymmetrically in the inner leaflet of the lipid bilayer of membrane plasma under physiological conditions. During the process of cell death by apoptosis, phospholipids asymmetric distribution is lost and phosphatidyl serine is translocated to the outer leaflet of the plasma membrane through a process of externalization. The measurement of the exposure of phosphatidylserine could be detected by Annexin V conjugated to fluorochromes. On the other hand, propidium iodide is a DNA intercalator that only can penetrate the interior of the cell in cases where the selective permeability of the plasma membrane is compromised, which clearly occurs during several processes of cell death.
# Pro-apoptotic potential of APT20TTMG was evaluated in the MCF-7 cell line, using the Apoptosis Detection with Annexin V/Propidium Iodide kit (eBioScience). First, cells were cultured in 24-well plates at a density of 1×10^5 cells/well for 24 hours for adhesion. […] Finally, the samples were labeled with Propidium Iodide and analyzed in a flow cytometer (BD FACSCanto II, BD Biosciences) through the acquisition of 10.000 gated events/sample.
# MCF-7 cell line [6] = assay: MTT cell viability assay (Example 3); type: cell-based, Human; conditions: 48 hours, 2% FBS
# Description: MTT assay was carried out to assess the cell viability of MCF-7 cell line after treatment with ASMO APT20TTMG, and, therefore, infer the ASMO1 cytotoxicity. The tetrazolium salt reduction (MTT) method evaluates cell viability by assessing mitochondrial integrity. Viable cells are able to reduce MTT reagent, which is yellow and water-soluble, into an insoluble purple formazan product. Formazan quantification could be measured by a spectrophotometer absorbance at 560 nm. The quantity of formazan is directly proportional to the number of viable cells in the culture.
# For this assay, MCF-7 cells were plated in 96-well plates at a density of 1×10^4 cells/well and cultured for 24 hours for adhesion and, subsequently incubated with eight concentrations (0.0078-1 μM) of APT20TTMG (prepared in medium with 2% FBS) for the period of 48 hours. Then, cells were washed with 150 μL/well of PBS and incubated with 100 μL/well of MTT solution prepared in culture medium, at a concentration of 0.5 mg/mL for 3 hours in the incubator. […] Finally, the absorbance of the samples was measured in a plate reader spectrophotometer (Multiskan Spectrum, Thermo Scientific, Waltham, MA, USA), at a wavelength of 560 nm. The absorbance of each sample was used to determine the cell viability after each treatment condition.
# SH-SY5Y cell line [7] = assay: Distribution of cell cycle phases; type: cell-based, Human; conditions: any concentration evaluated
# AKT = assay: ELISA of tumor tissue homogenate; type: in vivo, Human; conditions: in relation to the negative control
# Description: (§1) For the assessment of biomarkers such as cAMP, AKT, GFAP, and TAU by ELISA, the U-87MG tumor tissues dissected out from the animals were homogenized according to kit instructions. The homogenates were centrifugated, and the supernatant was collected and immunoassayed with the Human AKT Protein ELISA Kit (MyByoSouce), cyclic AMP Complete Enzyme-linked Immunosorbent Assay (ELISA) kit (MyByoSouce), Human Glial Fibrillary Acidic Protein (GFAP) ELISA Kit (Cusabio), and Human TAU Protein (TAU) ELISA Kit (MyByoSouce) for the quantitative determination of cAMP, AKT, GFAP, and TAU proteins, respectively.
# (§2) As shown in FIG. 37A-D, the graphs present the individual values of protein quantification of tumors from 6 animals. (A) cAMP, (B) […], (C) GFAP, and (D) TAU.
# GFAP = assay: ELISA of tumor tissue homogenate; type: in vivo, Human; conditions: in relation to the non-treated control
# Description: as §1, §2
# TAU = assay: ELISA of tumor tissue homogenate; type: in vivo, Human; conditions: after treatment
# Description: as §1, §2
substance,measurement,setting,value
"APT20TTMG: engineered polynucleotide ASMO1, 24 nt, SEQ ID NO: 3 gtccactaacctttcaggccagcg; targeting moieties 5′-GTCCA-3′ and 5′-CG-3′, U1 snRNP recruiting moiety (GTCCACTAACCTTTCAGGCCAGCG; sugars from the 5' end m5 d14 m5, all phosphorothioate, methylation of C and T or U not given here)",Score: Mitotic figures,[1],1 (4×) and 3
same,internalization,[2]; 1 hour,47.45±4.7%
same,internalization,[2]; 2 hours,45.45±3.9%
same,internalization,[2]; 4 hours,58±4.8%
same,internalization,[2]; 6 hours,63.65±3.2%
same,necrotic cells,SH-SY5Y cell line [3],increase in necrotic cells
same,mitochondrial membrane potential,SH-SY5Y cell line [4],no change in mitochondrial membrane potential
same,"proportion of viable cells, recent/late apoptosis or necrosis",MCF-7 cell line [5],no change in any of the evaluated parameters
same,cell viability (MTT),MCF-7 cell line [6]; 0.5 μM,86.4±1.6%
same,cell viability (MTT),MCF-7 cell line [6]; 1 μM,85±2.7%
same,cell cycle phases,SH-SY5Y cell line [7],no change in cell cycle phases
same,AKT expression in tumor tissue (ELISA),AKT,reduces the expression of ART protein
same,GFAP in tumor tissue (ELISA),GFAP,reduction of this biomarker
same,TAU expression in tumor tissue (ELISA),TAU,significant reduction in TAU expression
